From patent US20240376085A1 (Janssen Pharmaceutica NV, priority 2021, published 2024) come the findings set out here.

The target in assay [1] is T1, IL-17A : IL-17RA binding (Homo sapiens, UniProt Q16552, K93Q).
T1 construct: Name: IL-17A-Flag
The assay can be described thus: IL-17A(FLAG-tagged):IL-17RA(His-tagged) binding disruption Eu-HTRF assay, Protocol 1. To be noted: FLAG-IL-17A 2.5 nM at 2x final concentration; average if tested more than once. Put shortly:
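IC50 came from a one-site competition fit of the acceptor/donor (665/620 nm) HTRF ratio. His-tagged IL-17RA, Eu-anti-FLAG and D2-anti-His were added after a 1 h rt compound preincubation with FLAG-tagged IL-17A dimer in PBS/0.01% Triton X-100, followed by 2 h at rt before reading.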
Background: Time-resolved FRET reads energy transfer from a long-lived donor to a nearby acceptor.

The subject of assay [2] is IL-17A-induced G-CSF production in human normal keratinocyte (NHK). As to the kind of experiment: NHK assay: IL-17A-induced G-CSF production in normal human keratinocytes. It is filed as cell-based. To be noted: Homo sapiens, Keratinocyte, 24 h, IL-17A 5 ng/mL, average if tested more than once. Put shortly: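 Compound titrations are first mixed with recombinant human IL-17A for 1 h at room temperature. The mixture goes onto adult normal human keratinocytes (final IL-17A 5 ng/mL, 5% FBS, 0.2% DMSO) for 24 h at 37 °C. Secreted G-CSF is then measured by HTRF and IC50 fitted.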

For orientation: IC50 means the concentration that gives 50% inhibition.

T1 sequence (Q16552 with tags, fused parts or gaps K93Q): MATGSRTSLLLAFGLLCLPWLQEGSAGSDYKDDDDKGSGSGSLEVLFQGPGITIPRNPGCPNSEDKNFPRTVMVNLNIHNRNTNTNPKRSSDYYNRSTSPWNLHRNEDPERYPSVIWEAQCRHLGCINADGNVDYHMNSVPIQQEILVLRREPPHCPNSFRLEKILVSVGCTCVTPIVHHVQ

Turning to `CC(C)C(NC(=O)CCC(F)(F)F)c1ccc2[nH]c([C@@H](NC(=O)c3ccnn3C)C3CCC(F)(F)CC3)nc2c1` (single isomer, unassigned) [Example 44, N—((S)-(4,4-Difluorocyclohexyl)(5-((S*)-2-methyl-1-(4,4,4-trifluorobutanamido)propyl)-1H-benzo[d]imidazol-2-yl)methyl)-1-methyl-1H-pyrazole-5-carboxamide], the half-maximal inhibitory concentration (IC50) in assay [1] and in assay [2] was more than 100 nM throughout.

Consider `Cc1nonc1C(=O)N[C@@H](CC(C)(C)C(F)(F)F)c1nc2ccc([C@H](NC(=O)CC3CC(F)(F)C3)C3CC3)cc2[nH]1` [Example 186, N—((S)-1-(6-((R)-Cyclopropyl(2-(3,3-difluorocyclobutyl)acetamido)methyl)-1H-benzo[d]imidazol-2-yl)-4,4,4-trifluoro-3,3-dimethylbutyl)-4-methyl-1,2,5-oxadiazole-3-carboxamide], for which the figures for the IC50 in assay [1] and in assay [2] were less than 50 nM and 50 to 100 nM, respectively.

For the compound `C[C@@H](NC(=O)CCC(F)(F)F)c1ccc2[nH]c([C@@H](NC(=O)c3ncn(CCC(F)F)n3)C3CCC(F)(F)CC3)nc2c1` [Example 40, N—[(S)-(4,4-Difluorocyclohexyl)-[6-[(1R)-1-(4,4,4-trifluorobutanoylamino)ethyl]-1H-benzimidazol-2-yl]methyl]-1-(3,3-difluoropropyl)-1,2,4-triazole-3-carboxamide], the concentration for half-maximal inhibition (IC50) in assay [1] and in assay [2] was more than 100 nM throughout.

As to `CC(C)n1nccc1C(=O)N[C@H](c1nc2ccc([C@H](NC(=O)CC3CC(F)(F)C3)C3CC3)cc2[nH]1)[C@H]1C[C@@H]2[C@H](C1)C2(F)F` [Example 241, N—((S)-(6-((R)-Cyclopropyl(2-(3,3-difluorocyclobutyl)acetamido)methyl)-1H-benzo[d]imidazol-2-yl)((1R,3r,5S)-6,6-difluorobicyclo[3.1.0]hexan-3-yl)methyl)-1-isopropyl-1H-pyrazole-5-carboxamide], the IC50 in assay [1] was 50 to 100 nM; in assay [2], less than 50 nM.

As for `C[C@@H](NC(=O)CCC(F)(F)F)c1ccc2[nH]c([C@@H](NC(=O)c3ncnn3CCC(F)(F)F)C3CCC(F)(F)CC3)nc2c1` [Example 220, N—((S)-(4,4-Difluorocyclohexyl)(5-((R)-1-(4,4,4-trifluorobutanamido)ethyl)-1H-benzo[d]imidazol-2-yl)methyl)-1-(3,3,3-trifluoropropyl)-1H-1,2,4-triazole-5-carboxamide], the values for the IC50 in assay [1] and in assay [2] were 50 to 100 nM and more than 100 nM, respectively.

For `C[C@@H](NC(=O)CCC(F)(F)F)c1ccc2[nH]c([C@@H](NC(=O)c3conc3CCC(F)(F)F)C3CCC(F)(F)CC3)nc2c1` [Example 214, N—((S)-(4,4-Difluorocyclohexyl)(5-((R)-1-(4,4,4-trifluorobutanamido)ethyl)-1H-benzo[d]imidazol-2-yl)methyl)-3-(3,3,3-trifluoropropyl)isoxazole-4-carboxamide], the IC50 is 50 to 100 nM in assay [1] and less than 50 nM in assay [2].

Take `O=C(N[C@H](c1nc2cc([C@H](NC(=O)C(F)(F)CC3CC3)C3CC3)ccc2[nH]1)C1CCC(F)(F)CC1)c1nonc1C1CC1` [Example 147, 4-Cyclopropyl-N—((S)-(5-((R)-cyclopropyl(3-cyclopropyl-2,2-difluoropropanamido)methyl)-1H-benzo[d]imidazol-2-yl)(4,4-difluorocyclohexyl)methyl)-1,2,5-oxadiazole-3-carboxamide]: the half-inhibitory concentration (IC50) in assay [1] was 50 to 100 nM; in assay [2], less than 50 nM.

For the compound `CC(C)c1c(C(=O)NC(CC(C)(C)C(F)(F)F)c2nc3cc([C@@H](C)NC(=O)CCC(F)(F)F)ccc3[nH]2)no[n+]1[O-]` (single isomer, unassigned) [Example 56, 3-Isopropyl-4-(((S*)-4,4,4-trifluoro-3,3-dimethyl-1-(5-((R)-1-(4,4,4-trifluorobutanamido)ethyl)-1H-benzo[d]imidazol-2-yl)butyl)carbamoyl)-1,2,5-oxadiazole 2-oxide], the IC50 in assay [1] and in assay [2] was 50 to 100 nM throughout.
